Entries after “also recorded” stand apart in the source; their conditions may differ. No end group written: not given here.
System: human insulin autoantibodies
Test: Competition with 125I-human insulin for binding to human insulin autoantibodies (competitive binding radioassay)
Conditions: for affinity / recognition by human insulin autoantibodies: Type I diabetes-associated autoantibodies, relative to human insulin
Method: Insulin autoantibodies isolated from sera of well-characterized first-degree relatives of patients with Type I diabetes mellitus were analyzed in comparative studies by competition with a series of insulins from different species and with insulin analogues. Insulin binding activity was detected using a competitive binding radioassay and expressed in nU of insulin precipitated per ml of sera (1 nU/ml=7.18 fmole/L).

Substance	affinity / recognition by human insulin autoantibodies	competition with 125I-human insulin for binding to human insulin autoantibodies (autoantibodies isolated from sera of first-degree relatives of Type I diabetes patients)	potency in binding to insulin autoantibodies relative to human insulin
Guinea pig insulin: guinea pig insulin; differs from human insulin at 18 positions (Insulin B chain FVSRHLCGSNLVETLYSVCQDDGFFYIPKD; Insulin A chain GIVDQCCTGTCTRHQLQSYCN; ends and bridges not checked; cysteine pairing not given here; UniProt P01329 25-54; P01329 90-110, looked up)	essentially not recognized; also recorded: reduced	failed to compete	–
human proinsulin	–	–	at least as potent as human insulin
ovine insulins: ovine insulin; differs from human by three amino acids	high-affinity recognition; also recorded: minimal reduction	–	–

Source: US5422339A, “Peptides having insulin autoantibody but not insulin receptor binding capacity” (Joslin Diabetes Center, Inc., priority 1994, dated 1995)
